Experiment: solubility test of organometallic complexes in various solvents
Type: physicochemical
Conditions: for solubility x in anisole: solvent having aromatic ring: anisole; for solubility x in toluene: solvent having aromatic ring: toluene; for solubility x in 2-ethoxyethanol / solubility x in ethanol / solubility x in isopropanol / solubility x in methanol / solubility x in diethyl ether: solvent not having aromatic ring; for solubility x in 2-ethoxyethanol: alcohol: 2-ethoxyethanol; for solubility x in ethanol: alcohol: ethanol; for solubility x in isopropanol: alcohol: isopropanol; for solubility x in methanol: alcohol: methanol
Procedure: In Example 1, the solubility of an organometallic complex having a pyrazine skeleton as described in Embodiment Mode 1 was evaluated. The evaluation was performed by examining the solubility in various solvents. For the solvent, toluene and anisole were each used as a solvent having an aromatic ring. Further, diethyl ether which is ether, and 2-ethoxyethanol, isopropanol, ethanol, and methanol which are alcohols were each used as a solvent not having an aromatic ring.
In addition, the solubility of btp2Ir(acac) (a structural formula (101) given below), which is disclosed in Nonpatent Document 1 was evaluated as a comparative sample A. In addition, the solubility of Ir(ppy)2(acac) (a structural formula (102) given below) was evaluated as a comparative sample B.

SMILES	solubility x in anisole	solubility x in toluene	solubility x in 2-ethoxyethanol	solubility x in ethanol	solubility x in isopropanol	solubility x in methanol	solubility x in diethyl ether
CC(=O)C=C(C)[O-].Cc1cnc(-c2[c-]cc(F)cc2)c(-c2ccc(F)cc2)n1.Cc1cnc(-c2[c-]cc(F)cc2)c(-c2ccc(F)cc2)n1.[Ir+3] [Sample 4]	⊚ (a double circle in the case of x≧1.2)	⊚ (a double circle in the case of x≧1.2)	⊚ (a double circle in the case of x≧1.2)	X (a cross in the case of x<0.6)	X (a cross in the case of x<0.6)	X (a cross in the case of x<0.6)	⊚ (a double circle in the case of x≧1.2)
CC(=O)C=C(C)[O][Ir]([c]1ccccc1-c1ncc(-c2ccccc2)nc1-c1ccccc1)[c]1ccccc1-c1ncc(-c2ccccc2)nc1-c1ccccc1 [Sample 10, (acetylacetonato)bis(2,3,5-triphenylpyrazinato)iridium(III)]	⊚ (a double circle in the case of x≧1.2)	⊚ (a double circle in the case of x≧1.2)	⊚ (a double circle in the case of x≧1.2)	X (a cross in the case of x<0.6)	X (a cross in the case of x<0.6)	X (a cross in the case of x<0.6)	⊚ (a double circle in the case of x≧1.2)
CC(C)c1cnc(-c2[c-]cc(F)cc2)c(-c2ccc(F)cc2)n1.CC(C)c1cnc(-c2[c-]cc(F)cc2)c(-c2ccc(F)cc2)n1.O=C([O-])c1ccccn1.[Ir+3] [Sample 7]	⊚ (a double circle in the case of x≧1.2)	⊚ (a double circle in the case of x≧1.2)	⊚ (a double circle in the case of x≧1.2)	X (a cross in the case of x<0.6)	X (a cross in the case of x<0.6)	X (a cross in the case of x<0.6)	X (a cross in the case of x<0.6)
Cc1cnc(-c2[c-]cc(F)cc2)c(-c2ccc(F)cc2)n1.Cc1cnc(-c2[c-]cc(F)cc2)c(-c2ccc(F)cc2)n1.O=C([O-])c1ccccn1.[Ir+3] [Sample 5]	⊚ (a double circle in the case of x≧1.2)	⊚ (a double circle in the case of x≧1.2)	⊚ (a double circle in the case of x≧1.2)	⊚ (a double circle in the case of x≧1.2)	⊚ (a double circle in the case of x≧1.2)	X (a cross in the case of x<0.6)	X (a cross in the case of x<0.6)
CC(=O)C=C(C)[O-].Fc1c[c-]c(-c2nccnc2-c2ccc(F)cc2)cc1.Fc1c[c-]c(-c2nccnc2-c2ccc(F)cc2)cc1.[Ir+3] [Sample 2]	⊚ (a double circle in the case of x≧1.2)	◯ (a circle in the case of 1.2>x≧0.9)	X (a cross in the case of x<0.6)	X (a cross in the case of x<0.6)	X (a cross in the case of x<0.6)	X (a cross in the case of x<0.6)	X (a cross in the case of x<0.6)
CC(=O)C=C(C)[O-].Cc1nc(C(C)C)cnc1-c1[c-]cccc1.Cc1nc(C(C)C)cnc1-c1[c-]cccc1.[Ir+3] [Sample 9]	⊚ (a double circle in the case of x≧1.2)	⊚ (a double circle in the case of x≧1.2)	⊚ (a double circle in the case of x≧1.2)	Δ (a triangle in the case of 0.9>x≧0.6)	Δ (a triangle in the case of 0.9>x≧0.6)	X (a cross in the case of x<0.6)	⊚ (a double circle in the case of x≧1.2)
CC(=O)C=C(C)[O-].[Ir+3].[c-]1ccccc1-c1nccnc1-c1ccccc1.[c-]1ccccc1-c1nccnc1-c1ccccc1 [Sample 1]	⊚ (a double circle in the case of x≧1.2)	◯ (a circle in the case of 1.2>x≧0.9)	X (a cross in the case of x<0.6)	X (a cross in the case of x<0.6)	X (a cross in the case of x<0.6)	X (a cross in the case of x<0.6)	X (a cross in the case of x<0.6)
